In patent US12714728B2, “Methods for the production of cardiac fibroblasts” (FUJIFILM Cellular Dynamics, Inc., priority 2022, dated 2026):

Columns and labels:
[1] = system: iPS cells (WT1+ epicardial cells); assay: Epicardial (WT1+) progenitor induction from iPS cells, CHIR dose titration / ABC; format: cell-based, human
Procedure: Cardiac mesoderm cells were then dissociated and contacted with a low concentration of Wnt inhibitor, XAV939, (Table 4) for two days to be specified into a WT1 epicardial lineage (FIG. 3A). The percentage of epicardial cells were measured in single CHIR, ABC, and double CHIR conditions. Epicardial induction with single CHIR or ABC step produced a mixed population of epicardial cells and cardiomyocytes. The percentage of WT1+ epicardial cells ranged from 30% WT1 to 90% WT1. These epicardial progenitors were used directly for cardiac fibroblast induction without additional passaging or purification of epicardial cells. A dose titration of CHIR was performed on iPS cells. […] A dose of 6 μM CHIR on Day 1 generated a population of 60% WT1 epicardial progenitor cells that have characteristic cobblestone morphology by Day 14 (FIG. 3C). […] When Activin and BMP were added with the single CHIR, the epicardial cells retained a flattened cobble stone morphology and dark, round nucleus. Cell-cell borders became less pronounced. There was no need to passage the epicardial cells. […] This was visible by increased cell numbers, decreased cell size, and more elongated morphology.

ROCK1/ROCK2 = details: competing with ATP; cited from earlier work
[2] = system: isogenic tri-culture cardiac microtissues (iPSC-derived cardiomyocytes, endothelial cells, cardiac fibroblasts); assay: Calcium transient / inotropic response of isogenic tri-culture cardiac microtissues; format: cell-based, human; details: for calcium amplitude inotropic response with increased CF content: DIV 14, 10,000 total cells, 20% endothelial cells, varying cardiac fibroblast content
Excerpt: For the cardiac tri-culture microtissue assay, cryopreserved iPSC-derived cell types were combined in a specific ratio and formed into microtissues in microwell plates (FIG. 5A). Microtissues containing 65% iCell Cardiomyocytes, 20% iCell Endothelial cells, and 15% iPSC derived cardiac fibroblasts are shown in FIG. 5B. After 1-2 days, the microtissues were contracting.
Microtissues were fed a co-culture medium (Table 8) to support all three cell types. […] Microtissues were generated from three donor lines 11713, 01279, and 01434. Microtissues contained either iPSC-derived cardiomyocytes only or were tri-culture, containing isogenic iPSC-derived cardiomyocytes, iPSC-derived endothelial cells, and iPSC-derived cardiac fibroblasts. All microtissues were assayed for response to isoproterenol on Day 14 of culture. […] This response was in tri-culture microtissues from all three donor lines, in two independently produced lots of cardiac fibroblasts from donor 01434, and in microtissues containing cardiac fibroblasts from two independently derived clones from donor 11713 (11713.008 and 11713.847).
Response to dobutamine (DOB), digoxin (DIG), isoproterenol (ISO), and epinephrine (EPI) were assessed at DIV 14 on cardiac tri-culture microtissues comprised of 10,000 total cells and 20% iCell Endothelial Cells and iCell Cardiomyocytes and varying concentrations of iPSC derived cardiac fibroblasts (CF). […] (FIG. 6B).
(§1) Tri-culture microtissues were made from Normal Healthy Control (NHC) and isogenic LMNA-L35P iPSC-derived cell types. Fourteen days post microtissue formation, microtissues were challenged with isoproterenol.

[3] = system: isogenic LMNA-L35P iPSC-derived tri-culture microtissues; assay: Calcium transient response of LMNA-L35P disease model tri-culture microtissues; format: cell-based, human; details: LMNA-L35P disease model microtissue; fourteen days post formation
Excerpt: as §1

[4] = system: iPSC derived cardiac fibroblasts; assay: Activation of iPSC-derived cardiac fibroblasts with TGFβ; format: cell-based, human
Procedure: The cardiac fibroblasts were thawed and plated on vitronectin-coated plates at 10 k/cm^2 and activated with TGFβ. TGFβ was added at 20 ng/mL or 40 ng/mL to activate cardiac fibroblasts on Day 2, with a media change on Day 4. On Day 5, media supernatants were collected and analyzed for fibronectin secretion by a Human FN ELISA Kit Cat #BMS2028. On Day 3 and Day 5, cardiac fibroblasts were harvested and counted by ViCell-XR. After 5 days cells were collected for flow cytometry.

[5] = system: epicardial progenitors from the ABC method; assay: Cardiac fibroblast differentiation in serum with varying basic FGF, CD29 positive cells; format: cell-based, human; details: increasing concentrations of basic FGF, serum-containing medium
Procedure: Cardiac fibroblasts were induced in serum containing conditions on Day 25. The cells were fed DMEM-Low glucose, 10% FBS, Ascorbic Acid, and 200 ng/mL basic FGF and purified through successive passaging (Table 6). Cardiac fibroblasts were >85% positive for TE-7 and CD29 and quiescent (i.e., less than 5% αSMA) (FIG. 4A).

Cc1c[nH]c(-c2cnc(NCCNc3ccc(C#N)cn3)nc2-c2ccc(Cl)cc2Cl)n1 [CHIR, CHIR99021]
WT1 epicardial progenitor cells ([1]; 6 μM CHIR on Day 1, single CHIR method): 60% | effect of increasing dose on percentage of WT1+ epicardial cells ([1]; dose on Day 1, single CHIR method, read on Day 9): did not increase the percentage of WT1+ epicardial cells

C[C@@H](N)[C@H]1CC[C@H](C(=O)Nc2ccncc2)CC1 [Y-27632]
IC50 (ROCK1/ROCK2): 800 nM

C[C@H]1O[C@@H](O[C@H]2[C@@H](O)C[C@H](O[C@H]3[C@@H](O)C[C@H](O[C@H]4CC[C@@]5(C)[C@H](CC[C@@H]6[C@@H]5C[C@@H](O)[C@]5(C)[C@@H](C7=CC(=O)OC7)CC[C@]65O)C4)O[C@@H]3C)O[C@@H]2C)C[C@H](O)[C@@H]1O [digoxin]
calcium amplitude inotropic response with increased CF content [2]: increased calcium amplitude inotropic response

CC(CCc1ccc(O)cc1)NCCc1ccc(O)c(O)c1 (centres unmarked) [dobutamine]
calcium amplitude inotropic response with increased CF content [2]: increased calcium amplitude inotropic response

CNC[C@H](O)c1ccc(O)c(O)c1 [epinephrine]
calcium amplitude inotropic response with increased CF content [2]: increased calcium amplitude inotropic response

CC(C)NCC(O)c1ccc(O)c(O)c1 (centres unmarked) [isoproterenol]
calcium transient amplitude ([2]; 100 nM isoproterenol, Normal Healthy Control microtissues, fourteen days post microtissue formation): increase in calcium transient amplitude | calcium transient amplitude response to isoproterenol ([2]; Day 14 of culture, three donor lines): increase in calcium transient amplitude | beat rate by calcium transient ([2]; in the presence of isoproterenol): increase in beat rate | response to isoproterenol (calcium transient amplitude) [3]: did not respond

TGFβ
gene expression by quantitative real-time PCR ([4]; 20 ng/mL TGFβ for 4 days, single CHIR and double CHIR cardiac fibroblasts): increased POSTN, DDR2, COL1A1, COL1A2, GJA1, and ACTA2 expression | alpha smooth muscle actin expressing population (flow cytometry) ([4]; TGFβ 20 ng/mL or 40 ng/mL added Day 2, cells collected after 5 days): alpha smooth muscle actin expressing population was seen to emerge | fibronectin secretion ([4]; cardiac fibroblasts from serum-containing and serum-free induction): increased fibronectin secretion

basic FGF: basic fibroblast growth factor used for cardiac fibroblast induction
percentage of CD29 positive cells [5]: increase the percentage of CD29 positive cells
